Earlier results on 1 compound are cited in publication PMC6152717, “Novel Tacrine-Scutellarin Hybrids as Multipotent Anti-Alzheimer’s Agents: Design, Synthesis and Biological Evaluation” (Molecules : A Journal of Synthetic Chemistry and Natural …, 2017).

Each structure is given as a SMILES string. Marks after values point to notes of the source that are not given here.

Data set [1] deals with Electric eel AChE (EeAChE). The conditions noted are these: cited from earlier work.
For data set [2] the following is noted: printed in DPPH EC50 column; cited from earlier work. For orientation: The DPPH test is a chemical assay of radical scavenging.
Data set [3] concerns AChE from human erythrocytes (hAChE). The conditions noted are these: read-out: AChE IC50 ± SEM; cited from earlier work.
Data set [4] concerns BChE from equine serum (eqBChE). As to conditions: read-out: BChE IC50 ± SEM; cited from earlier work.

Consider `COc1cc2oc(-c3cccc(OCC(=O)NCCCCCCNc4c5c(nc6cc(Cl)ccc46)CCCC5)c3)cc(=O)c2c(OC)c1OC` [Compound 2], for which the IC50 – broadly, the concentration needed to halve the response being measured – is 47.2 nM in data set [1] (Electric eel AChE activity, read-out: AChE IC50 ± SEM (converted)); 32.5 ± 0.25 nM in data set [3]; 968.9 ± 8.26 nM in data set [4]. Further, in data set [1] (electric eel AChE vs equine serum BChE), the “SI (BChE IC50/AChE IC50)” value was 20.5. The ORAC-FL antioxidant power in data set [2] was 0.47 ± 0.03 ^a µM of Trolox/µM of tested compound.
